Experimental data as given in article PMC3430861, “The pharmacological profile of ELIC, a prokaryotic GABA-gated receptor” (Neuropharmacology, 2012).
Like-named read-outs stand apart in the source and are kept apart here.

Tests used:
[1] = target: T1, ELIC (Dickeya chrysanthemi, UniProt P0C7B7); assay: cell-based; assay type: cell-based, Erwinia chrysanthemi
T1 sequence (P0C7B7 8-321): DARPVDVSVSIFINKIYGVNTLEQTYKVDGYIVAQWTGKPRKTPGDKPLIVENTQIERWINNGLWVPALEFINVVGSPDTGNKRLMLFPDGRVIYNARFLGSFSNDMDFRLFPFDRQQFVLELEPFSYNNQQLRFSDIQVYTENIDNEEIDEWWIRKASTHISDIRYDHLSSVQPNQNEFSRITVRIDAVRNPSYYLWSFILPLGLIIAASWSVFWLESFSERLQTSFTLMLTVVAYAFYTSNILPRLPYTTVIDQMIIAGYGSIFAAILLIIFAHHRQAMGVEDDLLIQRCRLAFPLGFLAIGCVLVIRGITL
Protocol: Xenopus laevis oocyte-positive females were purchased from NASCO (Fort Atkinson, Wisconsin, USA) and maintained according to standard methods. Harvested stage V–VI Xenopus oocytes were washed in four changes of ND96 (96 mM NaCl, 2 mM KCl, 1 mM MgCl2, 5 mM HEPES, pH 7.5), de-folliculated in 1.5 mg ml^−1 collagenase Type 1A for approximately 2 h, washed again in four changes of ND96 and stored in ND96 containing 2.5 mM sodium pyruvate, […], 0.7 mM theophylline.
(§1) The ELIC sequence (Genbank accession number POC7B7) was purchased from Genscript as a synthetic gene with optimized codon usage for expression in Escherichia coli. […] Stage V and VI oocytes were injected with 20 ng cRNA, and currents recorded 1–3 days post-injection.

[2] = target: T2, ELIC (Dickeya chrysanthemi, UniProt P0C7B7, INS163G); assay: cell-based; assay type: cell-based, Erwinia chrysanthemi
T2 construct: expressed in transfected cells; host or cells: Xenopus laevis oocytes injected with cRNA
Protocol: Xenopus laevis oocyte-positive females were purchased from NASCO (Fort Atkinson, Wisconsin, USA) and maintained according to standard methods.
as §1

[3] = tested on: GLIC; set-up: method as in Alqazzaz et al., 2011; settings: ref Alqazzaz et al., 2011, cited from earlier work; for inhibition of GLIC (yes/no): comparison ELIC vs GLIC
[4] = 1 mM, read-out: pEC50 (EC50): agonist effect at the concentration shown (converted)
[5] = 10 mM, read-out: pEC50 (EC50): agonist effect at the concentration shown (converted)
[6] = Hill coefficient of inhibition curve

## COc1ccc(-c2ccc(=N)n(CCCC(=O)O)n2)cc1 [Gabazine (SR-95531), Gabazine]
[1]
  effect when co-applied in the presence of GABA: no effect

## NC(=O)C[C@H](N)C(=O)O [Asparagine]
[2]; 1 mM
  effect on ELIC (agonist test): no effect

## C[C@@H](O)[C@H](N)C(=O)O [Threonine]
[2]; 1 mM
  effect on ELIC (agonist test): no effect

## CN1CCc2cc3c(cc2[C@H]1[C@@H]1OC(=O)c2c1ccc1c2OCO1)OCO3 [Bicuculline]
[1]; 100 μM
  effect when co-applied in the presence of GABA: no effect
[1]; wild type ELIC, at the GABA EC50 (1.6 mM)
  pIC50: no inhibition: NI* (no inhibition at 100 μM)

## C[N+](C)(C)C [tetramethylammonium]
[1]; read-out: IC50
  IC50: ~20000 µM

## CC(=O)OCC[N+](C)(C)C [ACh]
[2]; [4]
  EC50: > 10000 µM
[2]; 10 mM
  effect on ELIC (agonist test): no ELIC responses

## α-amino hydroxbutyric acid
[2]; 10 mM
  effect on ELIC (agonist test): no effect
[2]; [5]
  EC50: > 10000 µM

## NC12CC3CC(CC(C3)C1)C2 [Amantadine]
[1]
  inhibition of ELIC (yes/no): inhibiting both receptors
[1]; [6]
  nH: 2.5 ± 0.4
[1]; IC50
  IC50: 370 µM
[1]; pIC50 (Mean ± SEM)
  IC50: 372 µM
[3]
  inhibition of GLIC (yes/no): inhibiting both receptors

## Cc1cccc(C)c1N=C([O-])C[N+](C)(C)C.Cl [QX-222]
[1]
  inhibition of ELIC (yes/no): inhibiting neither
  pIC50: no inhibition: NI (key: NI: no inhibition at 10 mM; NI*: no inhibition at 100 μM)

## N[C@@H](Cc1ccc(O)cc1)C(=O)O [Tyrosine]
[2]; 1 mM
  effect on ELIC (agonist test): no effect
[1]
  effect when co-applied in the presence of GABA: no effect

## O=S1OC[C@@H]2[C@H](CO1)[C@@]1(Cl)C(Cl)=C(Cl)[C@]2(Cl)C1(Cl)Cl (stereo partly drawn) [α-endosulfan]
[1]
  nH: 0.7 ± 0.2
[1]; IC50
  IC50: 17 µM
[1]; pIC50 (Mean ± SEM)
  IC50: 17 µM
[3]; GLIC
  IC50: 17 µM

## CN(C)CCCN1c2ccccc2Sc2ccc(Cl)cc21 [Chlorpromazine]
[1]
  inhibition of ELIC (yes/no): inhibiting both receptors
  nH: 1.2 ± 0.4
[1]; IC50
  IC50: 230 µM
[1]; pIC50 (Mean ± SEM)
  IC50: 229 µM
[3]
  inhibition of GLIC (yes/no): inhibiting both receptors

## CC(C)[C@H](N)C(=O)O [Valine]
[2]; 1 mM
  effect on ELIC (agonist test): no effect

## C[C@@H]1C[C@H]2[C@@H]3CCC4=CC(=O)C=C[C@]4(C)[C@@]3(F)[C@@H](O)C[C@]2(C)[C@@]1(O)C(=O)CO [Dexamethasone]
[1]; comparison ELIC vs GLIC
  inhibition of ELIC (yes/no): inhibiting neither

## N[C@@H](CO)C(=O)O [Serine]
[2]; 1 mM
  effect on ELIC (agonist test): no effect

## CSCC[C@H](N)C(=O)O [Methionine]
[2]; 1 mM
  effect on ELIC (agonist test): no effect

## Ivermectin
[1]
  inhibition of ELIC (yes/no): inhibiting neither
  pIC50: no inhibition: NI (key: NI: no inhibition at 10 mM; NI*: no inhibition at 100 μM)

## N[C@@H](CS)C(=O)O [Cysteine]
[2]; 1 mM
  effect on ELIC (agonist test): no effect

## O=C(O)[C@@H]1CCCN1 [Proline]
[2]; 1 mM
  effect on ELIC (agonist test): no effect
[1]
  effect when co-applied in the presence of GABA: no effect

## CC(C)C[C@H](N)C(=O)O [Leucine]
[2]; 1 mM
  effect on ELIC (agonist test): no effect

## NCCc1c[nH]c2ccc(O)cc12 [5-HT]
[2]; [4]
  EC50: > 10000 µM
[2]; 10 mM
  effect on ELIC (agonist test): no ELIC responses

## N[C@@H](Cc1ccccc1)C(=O)O [Phenylalanine]
[2]; 1 mM
  effect on ELIC (agonist test): no effect

## O=C(O)CCC(=O)C(=O)O [α-ketoglutarate]
[2]; 10 mM
  effect on ELIC (agonist test): did not activate ELIC
[2]; [5]
  EC50: > 10000 µM

## N[C@@H](Cc1c[nH]c2ccccc12)C(=O)O [Tryptophan]
[2]; 1 mM
  effect on ELIC (agonist test): no effect

## Oc1ccc2[nH]ccc2c1 [5-hydroxyindole]
[1]
  inhibition of ELIC (yes/no): inhibiting neither

## O=C([O-])CCC(=O)[O-].[Na+].[Na+] [sodium succinate]
[2]; 10 mM
  effect on ELIC (agonist test): did not activate ELIC
[2]; [5]
  EC50: > 10000 µM

## CC(=O)[C@H]1CC[C@H]2[C@@H]3CCC4=CC(=O)CC[C@]4(C)[C@H]3CC[C@]12C [Progesterone]
[1]
  nH: 1.8 ± 0.58
[1]; IC50
  IC50: 150 µM
[1]; pIC50 (Mean ± SEM)
  IC50: 151 µM

## NC(=O)CC[C@H](N)C(=O)O [Glutamine]
[2]; 1 mM
  effect on ELIC (agonist test): no effect
[1]
  effect when co-applied in the presence of GABA: no effect

## O=C(O)Cc1c[nH]c2ccccc12 [3-indole acetic acid]
[2]; 10 mM
  effect on ELIC (agonist test): no effect
[2]; [5]
  EC50: > 10000 µM

## NCCCC(=O)O [GABA]
[2]; wild type ELIC, agonist concentration-response
  Hill Slope: 2.1 ± 0.6
[2]; wild type ELIC, oocytes clamped at −60 mV
  pEC50: 2.78 ± 0.04
[2]; wild type ELIC, oocytes clamped at −60 mV, read-out: EC50 (converted)
  EC50: 1600 µM

## N[C@@H](Cc1c[nH]cn1)C(=O)O [Histidine]
[2]; 1 mM
  effect on ELIC (agonist test): no effect
[1]
  effect when co-applied in the presence of GABA: no effect

## NCc1cc(=O)[nH]o1 [muscimol]
[2]; 30 μM
  effect on ELIC (agonist test): no effect

## NCCC(=O)O [β-alanine]
[2]; 10 mM
  effect on ELIC (agonist test): no effect

## O=C(O)CCC(=O)O [succinic acid]
[2]; 10 mM
  effect on ELIC (agonist test): did not activate ELIC

## O=[N+]([O-])NC1=NCCN1Cc1ccc(Cl)nc1 [Imidaclopride]
[1]
  inhibition of ELIC (yes/no): inhibiting neither

## CC(=O)O[C@H]1C[C@@H]2CC[C@@H]3[C@H](CC[C@@]4(C)[C@H]3C[C@H]([N+]3(C)CCCCC3)[C@@H]4OC(C)=O)[C@@]2(C)C[C@@H]1[N+]1(C)CCCCC1 [Pancuronium]
[1]
  pIC50: no inhibition: NI (key: NI: no inhibition at 10 mM; NI*: no inhibition at 100 μM)

## CCC(N)C(=O)O (stereo not drawn) [α-aminobutyrate]
[2]; 10 mM
  effect on ELIC (agonist test): did not activate ELIC
[2]; [5]
  EC50: > 10000 µM

## NCC(=O)O [Glycine]
[2]; [4]
  EC50: > 10000 µM
[2]; 10 mM
  effect on ELIC (agonist test): no ELIC responses
[2]; [5]
  EC50: > 10000 µM

## CCCC(C(=O)OCCN(CC)CC)(c1ccccc1)c1ccccc1 [Proadifen]
[1]
  nH: 2.9 ± 0.6
  pIC50 (Mean ± SEM): 5.09 ± 0.04
[1]; IC50
  IC50: < 20 µM
[1]; read-out: IC50
  IC50: 8.1 µM

## N[C@@H](CCC(=O)O)C(=O)O [L-glutamate]
[2]; 1 mM
  effect on ELIC (agonist test): no effect
[2]; 10 mM
  effect on ELIC (agonist test): did not activate ELIC

## O=C1CCCO1 [γ-butyrolactone]
[2]; 10 mM
  effect on ELIC (agonist test): did not activate ELIC

## CC[N+](CC)(CC)CC [tetraethylammonium]
[1]; read-out: IC50
  IC50: ~20000 µM

## NCCCP(=O)(O)O [3-aminophosphonic acid]
[2]; 100 mM
  effect on ELIC (agonist test): no effect
[2]; 100 mM, read-out: pEC50 (EC50): agonist effect at the concentration shown (converted)
  EC50: > 10000 µM

## N[C@@H](CC(=O)O)C(=O)O [Aspartate]
[2]; 1 mM
  effect on ELIC (agonist test): no effect

## C[C@H](N)C(=O)O [Alanine]
[2]; 1 mM
  effect on ELIC (agonist test): no effect

## ClC1=C(Cl)[C@]2(Cl)[C@@H]3[C@@H]4C[C@@H]([C@H]5O[C@@H]45)[C@@H]3[C@@]1(Cl)C2(Cl)Cl [Dieldrin]
[1]
  nH: 1.1 ± 0.1
[1]; IC50
  IC50: 66 µM
[1]; pIC50 (Mean ± SEM)
  IC50: 66.1 µM

## CC[C@H](C)[C@H](N)C(=O)O [Isoleucine]
[2]; 1 mM
  effect on ELIC (agonist test): no effect

## NCCCC[C@H](N)C(=O)O [Lysine]
[2]; 1 mM
  effect on ELIC (agonist test): no effect

## N=C(N)NCCC[C@H](N)C(=O)O [Arginine]
[2]; 1 mM
  effect on ELIC (agonist test): no effect

## CC(C)(C)[C@]1(O)CC2OC(=O)CC23C(=O)OC2OC(=O)[C@H](O)C231 (stereo partly shown) [Bilobalide]
[1]; [6]
  nH: 1.3 ± 0.2
[1]; IC50, wild type ELIC, at the GABA EC50 (1.6 mM)
  IC50: 330 µM
[1]; pIC50 (Mean ± SEM), wild type ELIC, at the GABA EC50 (1.6 mM)
  IC50: 331 µM

## O=C(O)[C@@H]1CCC(O)=N1 [pyroglutamate]
[2]; 10 mM
  effect on ELIC (agonist test): did not activate ELIC
